These results are taken from US10017487B2, “Fused heterocyclic compound” (Takeda Pharmaceutical Company Limited, priority 2015, dated 2018).

As a reminder, the inhibition is the drop in the measured response relative to a control, in per cent.

Molecules are shown by their SMILES. Structures can show the parent of a compound that is named as a salt.

One assay deals with DIO mouse. Description: Anti-obesity effect test using DIO mouse. Type of assay: in vivo. Particulars: DIO mice, group average. The procedure:
Diet-induced obesity (DIO) mice (D12079B diet, male, 32-week old) were orally administered with a 0.5% methyl cellulose suspension containing a test compound (30 mg/kg) (compound administration group, six mice per group) or a 0.5% methyl cellulose suspension (compound non-administration group (vehicle), six mice per group) once a day for eight days. The averages of the body weights at the start of administration and after continuous administration for eight days are shown below.

For assay [1], the target named is T1, Human recombinant enteropeptidase (Homo sapiens, UniProt P98073).
T1 construct: purchased ITSI-Biosciences LLC #REN-260
Description: Human enteropeptidase inhibitory activity. Particulars: 3.3 μM test compound; fluorescence intensity at 2 hours after start of reaction; read-out: Inhibition rate at 3.3 μM. Type of assay: biochemical. The protocol:
Human recombinant enteropeptidase (#REN-260, ITSI-Biosciences LLC) was diluted with an assay buffer (50 mM Tricine, pH 8.0, 0.01 (w/v) %, Tween 20, 10 mM CaCl2) to prepare a 24 mU/mL enzyme solution. Subsequently, 5FAM-Abu-Gly-Asp-Asp-Asp-Lys-Ile-Val-Gly-Gly-Lys(CPQ2)-Lys-Lys-NH2 (purity: 97.2%, CPC Scientific Inc., SEQ ID NO: 1) was diluted with the assay buffer to prepare a 2.1 μM substrate solution. A test compound is dissolved in DMSO into a 1 mM solution, and the solution was diluted by 100-fold with the assay buffer to give a compound solution. To a 384-well black plate (#784076, Greiner Bio-One), 5 μL of the compound solution and 5 μL of the substrate solution were added and mixed, and 5 μL of the enzyme solution was then added to the mixture, followed by mixing to start the reaction. The fluorescence intensity was measured with a fluorescence plate reader EnVision (The Perkin-Elmer Corp.) at an excitation wavelength of 485 nm and a fluorescence wavelength of 535 nm. The same reaction as above except that the test compound was not contained was performed (test compound non-addition group). Furthermore, the same reaction as above except that the test compound and the enzyme were not contained was performed (control group). The inhibition rate was calculated using the fluorescence intensity at 2 hours after the start of the reaction by the following expression: Inhibition rate (%)=(1-((fluorescence intensity of test compound addition group)−(fluorescence intensity of control group))/((fluorescence intensity of test compound non-addition group)−(fluorescence intensity of control group)))×100

In another assay the test system is HFD-fed mouse. Briefly: Fecal protein concentration-increasing test using HFD-fed mouse. Type of assay: in vivo. Particulars: HFD-fed mice, 10 mg/kg oral, whole feces of first day of administration, group average. The procedure:
High fat diet-fed (HFD-fed) mice (D12079B diet, male, 19-week old) were orally administered with a 0.5% methyl cellulose suspension containing a test compound (10 mg/kg) (compound administration group, six mice per group) or a 0.5% methyl cellulose suspension (compound non-administration group (vehicle), five mice per group), and whole feces were collected on the first day of administration. Dried feces were dissolved in 0.5 N NaOH, followed by centrifugation at 12,000 rpm. The protein concentration in the supernatant was then quantitatively measured (Lowry method), and the amount of protein contained in 1 g of feces was calculated as the fecal protein concentration (mg/g feces). The average of each group is shown below.

T1 sequence (P98073 whole entry): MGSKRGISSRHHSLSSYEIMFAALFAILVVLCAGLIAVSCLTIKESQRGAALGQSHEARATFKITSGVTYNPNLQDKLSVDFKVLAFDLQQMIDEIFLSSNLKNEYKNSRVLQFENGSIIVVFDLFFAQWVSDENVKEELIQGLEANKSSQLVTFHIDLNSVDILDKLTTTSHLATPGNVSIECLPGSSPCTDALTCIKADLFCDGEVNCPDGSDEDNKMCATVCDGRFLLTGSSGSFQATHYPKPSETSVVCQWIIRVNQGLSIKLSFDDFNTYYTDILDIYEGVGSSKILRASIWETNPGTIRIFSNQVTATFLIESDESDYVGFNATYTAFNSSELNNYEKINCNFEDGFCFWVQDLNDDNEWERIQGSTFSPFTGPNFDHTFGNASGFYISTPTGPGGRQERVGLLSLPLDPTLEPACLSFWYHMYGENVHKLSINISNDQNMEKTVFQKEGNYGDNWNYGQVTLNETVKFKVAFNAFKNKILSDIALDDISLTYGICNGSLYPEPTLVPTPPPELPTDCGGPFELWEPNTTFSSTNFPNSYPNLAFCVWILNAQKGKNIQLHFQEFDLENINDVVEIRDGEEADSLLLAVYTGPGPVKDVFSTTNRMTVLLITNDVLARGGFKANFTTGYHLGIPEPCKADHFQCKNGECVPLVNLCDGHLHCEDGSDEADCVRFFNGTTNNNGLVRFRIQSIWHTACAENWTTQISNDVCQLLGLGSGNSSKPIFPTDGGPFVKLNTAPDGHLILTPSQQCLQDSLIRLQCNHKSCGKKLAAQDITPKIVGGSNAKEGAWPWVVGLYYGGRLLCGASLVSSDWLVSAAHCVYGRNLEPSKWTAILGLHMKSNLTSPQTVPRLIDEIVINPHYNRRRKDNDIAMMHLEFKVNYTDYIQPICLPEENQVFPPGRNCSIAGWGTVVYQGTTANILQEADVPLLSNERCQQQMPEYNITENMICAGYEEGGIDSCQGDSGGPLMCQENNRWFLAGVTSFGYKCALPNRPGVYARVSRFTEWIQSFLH

With `N=C(N)Nc1ccc(C(=O)Oc2cc3c(c(C(=O)NCCS(=O)(=O)O)c2)CCO3)cc1` [Example 1, 2-(((6-((4-Carbamimidamidobenzoyl)oxy)-2,3-dihydro-1-benzofuran-4-yl)carbonyl)amino)ethanesulfonic acid], the “Body weight (g) After continuous administration for 8 days” value in the assay on DIO mouse (30 mg/kg oral once a day for eight days) was found to be 42.8 g. In the assay on DIO mouse (30 mg/kg oral once a day, baseline), the “Body weight (g) At start of administration” value worked out at 43.5 g. Further, the inhibition at 3.3 µM in assay [1] came out at 101%. This molecule also gave a Fecal protein concentration in the assay on HFD-fed mouse of 188.8 mg/g feces. In the case of `N=C(N)Nc1ccc(C(=O)Oc2cc3c(c(C(=O)NCCCS(=O)(=O)O)c2)CCO3)cc1` [Example 2, 3-(((6-((4-carbamimidamindobenzoyl)oxy)-2,3-dihydro-1-benzofuran-4-yl)carbonyl)amino)propane-1-sulfonic acid], the inhibition at 3.3 µM in assay [1] stood at 101%. For `N=C(N)Nc1ccc(C(=O)Oc2cc3c(c(C(=O)NCS(=O)(=O)O)c2)CCO3)cc1` [Example 3, (((6-((4-carbamimidamindobenzoyl)oxy)-2,3-dihydro-1-benzofuran-4-yl)carbonyl)amino)methanesulfonic acid], in assay [1], the inhibition at 3.3 µM was found to be 101%. Still for that read-out and setting: under `N=C(N)Nc1ccc(C(=O)Oc2cc3c(c(C(=O)NCP(=O)(O)O)c2)CCO3)cc1` [Example 4, ((((6-((4-Carbamimidamidobenzoyl)oxy)-2,3-dihydro-1-benzofuran-4-yl)carbonyl)amino)methyl)phosphonic acid hydrochloride] stands 101%; under `CC1(C)Cc2c(cc(OC(=O)c3ccc(NC(=N)N)cc3)cc2C2=NOC(CC(=O)O)(C(=O)O)C2)O1` (stereo not drawn) [Example 5, 3-(6-((4-carbamimidamindobenzoyl)oxy)-2,2-dimethyl-2,3-dihydro-1-benzofuran-4-yl)-5-(carboxymethyl)-4,5-dihydro-1,2-oxazole-5-carboxylic acid], 100%; under `N=C(N)Nc1ccc(C(=O)Oc2cc3c(c(C4=NOC(CC(=O)O)(C(=O)O)C4)c2)CCO3)cc1` (stereo not drawn) [Example 6, 3-(6-((4-Carbamimidamidobenzoyl)oxy)-2,3-dihydro-1-benzofuran-4-yl)-5-(carboxymethyl)-4,5-dihydro-1,2-oxazole-5-carboxylic acid], 101%.
